# From paper PMC8617031, “Development of a BCL-xL and BCL-2 dual degrader with improved anti-leukemic activity,” (Nature Communications, 2021)
# Where “and” joins values, the source holds several entries; their conditions need not be identical. Equal entries are not always repeated.
# Assays:
# 293T cells = assay: Viability (MTS) of 293T cells; assay type: cell-based, human; settings: for 293T cell viability, MTS absorbance 490 as percent of control, mean of three wells, left block of Plate 29: mean of 3 wells, Plate 29 normalised with blank 0.332667 and control 0.923167 of Plate 30; for 293T cell viability, MTS absorbance 490 as percent of untreated control, single replicate well: normalised to own plate
# Description: (§1) Suspension cells were treated 30 min after seeding, whereas adherent cells were allowed to adhere overnight and were then treated. Compound treatments were prepared in complete cell culture medium and 100 µl of 2× treatment-containing medium were added to each well. Complete cell culture medium without treatment was added in control wells, and wells containing medium without cells served as background. The outer wells of the 96-well plate were not used for treatment and were filled with 250 µl of PBS to reduce evaporation of medium from inner wells. Each compound and/or combination was tested at nine different concentrations with three replicates. The cell viability was measured after 72 h by tetrazolium-based MTS assay. MTS reagent (2 mg ml^–1 stock; cat. no. G1111, Promega) was freshly supplemented with phenazine methosulfate (PMS, 0.92 mg ml^–1 stock, cat. no. P9625, Sigma-Aldrich) in 20:1 ratio, and 20 µl of this mixture was added to each control and treatment well. The cells were incubated for 4 h at 37 °C and 5% CO2, and then the absorbance was recorded at 490 nm using Biotek’s Synergy Neo2 multimode plate reader (Biotek). The average absorbance value of background wells was subtracted from absorbance value of each control and treatment well, and percent cell viability ((At/A0) × 100)) was determined in each treatment well, where At is the absorbance value of the treatment well and A0 is the average absorbance value of control wells after background subtraction. The data were expressed as average percentage cell viability and fitted in non-linear regression curves using GraphPad Prism 7 (GraphPad Software, La Jolla, CA, USA).
# Hela cells = assay: Viability (MTS) of Hela cells; assay type: cell-based, human; settings: in % (unit assumed)
# Description: as §1
# Kasumi-1 cells = assay: Viability (MTS) of Kasumi-1 AML cells; assay type: cell-based, human; settings: Fig. 7c; for Luminescence (raw plate reading): Kasumi, 24h
# [1] = biological target: T1, BCL-2/PROTAC/VCB ternary complex (Homo sapiens, UniProt P10415+P40337); assay: AlphaLISA ternary complex formation, cell-free, BCL-2; assay type: binding; settings: for Alpha (Alpha Endpoint read, Bcl-2 ternary complex formation): raw plate signal, duplicate wells; for AlphaLISA signal, BCL-2/PROTAC/VCB: Fig. 2d raw Alpha reads
# T1 construct: pGEX-6P-1-VHL(54-213) (pDL2200) was constructed through Gibson assembly method; made in house; host or cells: bacterial culture (LB broth, IPTG induction)
# Summary of the method: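 Cell-free AlphaLISA: 5 nM His-tagged BCL-xL or BCL-2 plus 5 nM GST-VCB incubated with fourfold serially diluted compound 30 min at room temperature. Glutathione donor and His acceptor beads (20 µg/ml each) then added for 15 and 45 min; AlphaLISA signal plotted against compound concentration.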
# T1 sequence (P10415 1-211 limits assumed): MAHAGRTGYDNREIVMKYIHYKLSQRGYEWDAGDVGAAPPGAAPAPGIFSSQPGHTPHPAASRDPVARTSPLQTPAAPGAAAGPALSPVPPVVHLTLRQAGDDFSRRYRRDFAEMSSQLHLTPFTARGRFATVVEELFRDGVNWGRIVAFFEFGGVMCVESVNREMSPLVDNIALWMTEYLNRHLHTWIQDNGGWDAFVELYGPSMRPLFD
# T1 sequence (P40337 54-213 limits assumed): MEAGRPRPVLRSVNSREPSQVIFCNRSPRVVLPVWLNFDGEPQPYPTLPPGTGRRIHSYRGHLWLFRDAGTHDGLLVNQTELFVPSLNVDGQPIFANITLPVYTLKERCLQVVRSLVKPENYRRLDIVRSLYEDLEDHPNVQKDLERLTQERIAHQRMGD
# T1 sequence (Q15369 17-112 partner limits assumed): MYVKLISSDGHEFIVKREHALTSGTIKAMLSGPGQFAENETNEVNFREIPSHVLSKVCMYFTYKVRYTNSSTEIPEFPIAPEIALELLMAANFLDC
# T1 sequence (Q15370 whole entry partner): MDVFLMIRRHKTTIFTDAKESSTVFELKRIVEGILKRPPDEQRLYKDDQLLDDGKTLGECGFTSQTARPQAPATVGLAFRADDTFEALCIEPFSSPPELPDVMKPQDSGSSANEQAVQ
smiles,measurement,setting,value
Cc1ncsc1-c1ccc([C@H](C)NC(=O)[C@@H]2C[C@@H](O)CN2C(=O)[C@@H](NC(=O)CCCCCC(=O)N2CCN(CC[C@H](CSc3ccccc3)Nc3ccc(S(=O)(=O)NC(=O)c4ccc(N5CCN(CC6=C(c7ccc(Cl)cc7)CCC(C)(C)C6)CC5)cc4)cc3S(=O)(=O)C(F)(F)F)CC2)C(C)(C)C)cc1 [DT2216],"293T cell viability, MTS absorbance 490 as percent of control, mean of three wells, left block of Plate 29",293T cells; 1 uM,99.007
same,"293T cell viability, MTS absorbance 490 as percent of control, single replicate well, left block of Plate 29","293T cells; 1 uM, Plate 29 normalised with blank 0.332667 and control 0.923167 of Plate 30, 1 µM",110.742 and 102.834 and 83.4447
same,"293T cell viability, MTS absorbance 490 as percent of untreated control, single replicate well",293T cells; 1 uM,109.179 and 101.433 and 82.4372
same,"293T cell viability, MTS absorbance 490 as percent of control, mean of three wells, left block of Plate 29",293T cells; 3 uM,87.4526
same,"293T cell viability, MTS absorbance 490 as percent of control, single replicate well, left block of Plate 29","293T cells; 3 uM, Plate 29 normalised with blank 0.332667 and control 0.923167 of Plate 30, 3 µM",93.7353 and 78.0285
same,"293T cell viability, MTS absorbance 490 as percent of untreated control, single replicate well",293T cells; 3 uM,92.5186 and 77.1312
same,cell viability normalised to control wells (single replicate),"Hela cells; MTS absorbance 490, Conc 0.00137174 uM",91.7776
same,cell viability normalised to control wells (single replicate),"Hela cells; MTS absorbance 490, Conc 0.00411523 uM",92.3987 and 92.7536
same,cell viability normalised to control wells (single replicate),"Hela cells; MTS absorbance 490, Conc 0.037037 uM",98.4324 and 86.0988
same,cell viability normalised to control wells (single replicate),"Hela cells; MTS absorbance 490, Conc 0.111111 uM",97.9 and 88.8495
same,cell viability normalised to control wells (single replicate),"Hela cells; MTS absorbance 490, Conc 0.333333 uM",93.1973 and 104.022
same,cell viability normalised to control wells (single replicate),"Hela cells; MTS absorbance 490, Conc 1 uM",83.5256 and 94.1733
same,cell viability normalised to control wells (single replicate),"Hela cells; MTS absorbance 490, Conc 3 uM",80.7749
same,IC50,"Kasumi-1 cells; Homo sapiens, Kasumi 1, 72 h, read-out: IC50, viability of Kasumi-1 cells",1150 nM
same,Luminescence (raw plate reading),Kasumi-1 cells; 2um (plate column 11),404633 and 365594 and 354853 and 362278
same,Luminescence (raw plate reading),Kasumi-1 cells; 4um (plate column 12),138608 and 119804 and 124492 and 119916
same,"Alpha (Alpha Endpoint read, Bcl-2 ternary complex formation)",[1]; Conc. 0.0762939 nM,20813 and 18426
same,"Alpha (Alpha Endpoint read, Bcl-2 ternary complex formation)",[1]; Conc. 0.305176 nM,25167 and 44180
same,"Alpha (Alpha Endpoint read, Bcl-2 ternary complex formation)",[1]; Conc. 1.2207 nM,134706 and 124477
same,"Alpha (Alpha Endpoint read, Bcl-2 ternary complex formation)",[1]; Conc. 4.88281 nM,167974 and 147424
same,"Alpha (Alpha Endpoint read, Bcl-2 ternary complex formation)",[1]; Conc. 19.5312 nM,637139 and 671757
same,"Alpha (Alpha Endpoint read, Bcl-2 ternary complex formation)",[1]; Conc. 78.125 nM,1569627 and 1815622
same,"Alpha (Alpha Endpoint read, Bcl-2 ternary complex formation)",[1]; Conc. 312.5 nM,1851330 and 1734079
same,"Alpha (Alpha Endpoint read, Bcl-2 ternary complex formation)",[1]; Conc. 1250 nM,970107 and 1023464
same,"Alpha (Alpha Endpoint read, Bcl-2 ternary complex formation)",[1]; Conc. 5000 nM,185911 and 171854
same,"Alpha (Alpha Endpoint read, Bcl-2 ternary complex formation)",[1]; Conc. 20000 nM,15128 and 13041
same,"AlphaLISA signal, BCL-2/PROTAC/VCB",[1]; compound 0.191 nM,15777 and 15419
same,"AlphaLISA signal, BCL-2/PROTAC/VCB",[1]; compound 0.763 nM,15170 and 18328
same,"AlphaLISA signal, BCL-2/PROTAC/VCB",[1]; compound 3.052 nM,22062 and 18311
same,"AlphaLISA signal, BCL-2/PROTAC/VCB",[1]; compound 12.207 nM,69812 and 70261
same,"AlphaLISA signal, BCL-2/PROTAC/VCB",[1]; compound 48.828 nM,478226 and 503248
same,"AlphaLISA signal, BCL-2/PROTAC/VCB",[1]; compound 195.31 nM,862665 and 765838
same,"AlphaLISA signal, BCL-2/PROTAC/VCB",[1]; compound 781.25 nM,770133 and 699715
same,"AlphaLISA signal, BCL-2/PROTAC/VCB",[1]; compound 3125 nM,392514 and 467832
same,"AlphaLISA signal, BCL-2/PROTAC/VCB",[1]; compound 12500 nM,47038 and 50161
same,"AlphaLISA signal, BCL-2/PROTAC/VCB",[1]; compound 50000 nM,7988 and 8322
same,"AlphaLISA signal, BCL-2/PROTAC/VCB","[1]; compound 200000 nM, 2 technical replicates",7003 and 7472
